Results taken from a melting point compilation (Tetko et al.; mined from patent text by program, amines drawn as free bases though some values may be those of a salt).

| Compound | melting point |
| --- | --- |
| Cc1ccc(Cn2c(-c3ccc(C(O)(C(F)(F)F)C(F)(F)F)cc3)cc3ccccc3c2=O)cc1 | 267 to 268 °C |
| O=C1CCC(N2Cc3c(OCc4ccc(CN5CCC(c6ccncc6)CC5)cc4)cccc3C2=O)C(=O)N1 (centres undefined) | 198 to 200 °C |
| CC(C)(C)NCC(O)COc1ccc2oc(-c3ccc(OCc4ccccc4)c(OCc4ccccc4)c3)cc(=O)c2c1 (centres undefined) | 156 to 157 °C |
| O=c1[nH]c2cc(Cl)ccc2n1C1CCN(Cc2ccnc(-c3ccc(Cl)cc3)c2)CC1 | 186 to 188 °C |
| CCC(=O)OC1CCC2C3CCC4=CC(=O)CCC4(CO)C3CCC12C (centres undefined) | 160 to 162 °C |
| CS(=O)CCNC(N)=O (centres undefined) | 88 °C |
| CCCc1cc(F)c2oc(Cc3ccc(OC)cc3)c(C)c2c1OC(=O)OCC | 85 to 88 °C |
| COC1(c2ccccc2)CCc2c(C(=O)N3CCC3)cc3c(nc(C)n3C)c2O1 (centres undefined) | 147 to 150 °C |
| CCOC(=O)CCc1cc(O)nn1C(C)C | 119 to 120 °C |
| COc1ccc(Cl)cc1C1(F)C(=O)Nc2cc(I)ccc21 (centres undefined) | 205 to 210 °C |
| CN(C)C1=NC2=NC3=C(CN(Cc4ccccc4)CC3=O)CN2N1 | 279 to 281 °C |
| Cc1cc(N)cc(C)c1S(=O)(=O)C[N+](=O)[O-] | 132 to 133 °C |
| O=C1c2ccccc2C(=O)N1Cc1ccc(SC(F)(F)F)cc1 | 130 to 132 °C |
| CC12CCC3C(CC=C4CCCCC43C)C1CC=C2Br (centres undefined) | 109 to 113 °C |
| C#CCn1c(I)cc(C(O)CC)c(C)c1=O (centres undefined) | 126 to 127 °C |
| COCCOc1ccc(I)cc1 | 36 to 37 °C |
| CCOC(=O)c1c[nH]c2ccc(OC3CCN(C)CC3)nc12 | 232 °C |
| CC1(C)Oc2cc3nc(SCc4ccccn4)[nH]c3cc2O1 | 210 to 211 °C |
| O=C(c1cccc(C(F)(F)F)c1)c1cc2cccc(Br)c2s1 | 135 to 136 °C |
| CC(c1ccc(-c2ccccc2)c(F)c1)c1csc(N)n1 (centres undefined) | 167 to 168 °C |
| CCOC(=O)/C=C/c1cn(Cc2cc(OCc3ccccc3)cc(OCc3ccccc3)c2)cc1-c1ccccc1 | 98 to 99 °C |
| CCOC(=O)CCCOc1ccc(NC(=O)c2ccc(C(C)(C)C)cc2)cc1 | 100 to 101 °C |
| CCOC(=O)C1=C(N)N=C(SC)C(C(=O)OCC)C1c1cccc([N+](=O)[O-])c1 (centres undefined) | 144 °C |
| COc1cc(OC)nc(Oc2cccc(Oc3nc(OC)cc(OC)n3)c2C(=O)OCc2ccccc2)n1 | 130 to 132 °C |
| CC(C)(C)c1ccc(C(O)CCCCN2CCC(=C3c4ccccc4CCc4ccccc43)CC2)cc1 (centres undefined) | 157 to 158 °C |

| Compound | melting point |
| --- | --- |
| O=C(O)CCCCCCCCCCCCCCC(=O)ON1C(=O)c2ccccc2C1=O | 109 to 110 °C |
| CC(=O)Nc1nc(-c2ccccc2)c(-c2ccc(=O)n(C(C)C)n2)s1 | 202 to 204 °C |
| Oc1ccc(C(=C(c2ccccc2)C(F)(F)F)c2ccc(OCCN3CCOCC3)cc2)cc1 | 154 to 157 °C |
| CC(C)n1nc(-c2nc(Br)c(N)nc2-c2ccccc2)ccc1=O | 204 to 206 °C |
| COc1ccc(Sc2cc3c(cc2Cl)C=C(C(=O)O)C(C(F)(F)F)O3)cc1 (centres undefined) | 239 to 242 °C |
| N#CCSc1c[nH]c2ccccc12 | 52 to 54.5 °C |
| COC(=O)C1CCCCc2c1ncn2C(c1ccccc1)(c1ccccc1)c1ccccc1 (centres undefined) | 161 to 163 °C |
| CCOc1ccc(CN2CCc3cc(O)ccc3C2)cc1OCC | 150 to 154 °C |
| O=C1NCCOC1C(O)c1ccccc1 (centres undefined) | 130 to 140 °C |
| CC(C)(C)NS(=O)(=O)c1ccccc1C(=O)CF | 126 °C |
| COC(C(=O)O)c1c(Cl)cccc1Cl (centres undefined) | 95 to 96 °C |
| CC(C)(C)OC(=O)N1CCC(c2ccc3[nH]c(=O)[nH]c3c2)CC1 | > 250 °C |
| COc1ccc(-c2nc(-c3ccc[nH]3)n(CCCBr)c2-c2ccc(OC)cc2)cc1 | 97 °C |
| C(=C\c1c[nH]c2ccccc12)/c1cc(/C=C/c2ccccc2OCc2ccccn2)[nH]n1 | 114 to 125 °C |
| CCOC(=O)C(O)(CC(=O)c1ccc(-c2ccccc2)cc1)C(=O)OCC | 88 to 88.3 °C |
| O=C1Cc2cccc(C(=O)c3ccc(Cl)cc3)c2N1 | 186 °C |
| COc1cc2c(c(C(C)C)c1OC)C(=O)N(CCl)S2(=O)=O | 117 to 119 °C |
| COC(=O)CCC1(CCC(=O)OC)c2cc(N(c3ccccc3)c3cccc(C)c3)ccc2-c2ccc(N(c3ccccc3)c3cccc(C)c3)cc21 | 159 to 160 °C |
| COc1cccc(C(=C/C=C/C(=O)Oc2ccc([N+](=O)[O-])cc2)c2cccc(OC)c2)c1 | 95 to 97 °C |
| COc1cc2c3ccc(OC)c(OC)c3n(C(=O)c3ccc4ccccc4c3)c2cc1OC | 137 to 141 °C |
| CC(C)(O)c1cnc2c(NC(=O)c3c(Cl)cccc3Cl)cccc2c1 | 187 to 189 °C |
| Cc1ccc2c(=O)[nH]sc2n1 | 187 to 190 °C |
| CCOC(=O)c1cnc(Nc2cc(C)ccc2C)[nH]c1=O | 252 to 254 °C |
| O=C(Cc1ccsc1)Nc1ccc(Br)cn1 | 117 °C |
| C=CCO/N=C(\C(=O)OC)c1csc(NC(c2ccccc2)(c2ccccc2)c2ccccc2)n1 | 115 to 116 °C |

| Compound | melting point |
| --- | --- |
| CCCNC(=O)C(C)=Cc1ccc2ccn(Cc3ccc(C(=O)O)cc3OC)c2c1 | 150 to 152 °C |
| N#Cc1cc(Cl)cc(Cl)c1Cl | 77 to 78 °C |
| CCOCc1nc2cnc3cc(Br)ccc3c2n1CCN1CCN(C(=O)OC(C)(C)C)CC1 | 140 to 143 °C |
| CC(=O)OC(CCCN1CCN(c2ncc(F)cn2)CC1)c1ccc(F)cc1 (centres undefined) | 76 to 77 °C |
| Cc1c(C)c2c(c(C)c1Br)CC(C)(CBr)O2 (centres undefined) | 60 to 61 °C |
| N=C(N)NN=Cc1cccc(Cl)c1I | 231 to 232 °C |
| C=C(Cl)CONC(=O)c1nc(-c2ccc(Cl)c(OC)c2F)cc(N)c1Cl | 146 to 148 °C |
| CS(=O)(=O)c1ccc(-n2nc(C(F)(F)F)cc2-c2nc3cccc(F)c3s2)cc1 | 186 to 188 °C |
| CN(C)Cc1nc(-c2ccccc2)cn1Cc1ccccc1 | 78 to 80 °C |
| CC(=O)Nc1ccc(Sc2cccnc2)cc1 | 138 to 140 °C |
| O=C(O)c1c(Cl)ccc([N+](=O)[O-])c1Nc1ccc(OCc2ccccc2)cc1 | 172 to 174 °C |
| CCn1cc(C(=O)NCc2ccc(Cl)cc2)c(=O)c2cc(CCCCO)sc21 | 136 to 139 °C |
| COc1cc2c(c(OC)c1OC)CCN(c1nc(N)c3cc(OC)c(OC)c(OC)c3n1)C2 | 193 to 195 °C |
| Cc1cnc2c(c1)CCCC2(C)C(N)=S (centres undefined) | 164 °C |
| COc1ccc(C(=O)Nc2ccccc2)cc1NCc1ccc(OC(C)=O)cc1 | 193 to 195 °C |
| O=C(NCC/C=C/CCCNC(=O)c1ccc(OC(F)F)cc1)c1ccc(OC(F)F)cc1 | 122 to 123 °C |
| COc1ccc(C(=O)Oc2cccc3cc4cccc(OC(=O)c5ccc(OC)cc5)c4c(OC(=O)c4ccc(OC)cc4)c23)cc1 | 260 °C |
| O=C(O)c1cc2c(c(C(=O)O)c1)NCCS2 | > 300 °C |
| COC(=O)CCC(=O)c1ccc(OC(=S)N(C)C)cc1 | 62 to 64 °C |
| Clc1cc(Cl)c2c(c1)C[C@@H]1CCc3ccccc3[C@@H]1O2 (relative stereo) | 141 to 144 °C |
| CCCCCCCNC(=O)Nc1ccc(N(C)C)cc1C(=O)NC1CCN(C(c2ccccc2)c2ccccc2)CC1 | 204 to 206 °C |
| COc1c(C#N)c(C)cc2c1C(C)(C)CCC2(C)C | 71 to 73 °C |
| CC(C)(C)OC(=O)N1CCC(CS(=O)Cc2cc(C(F)(F)F)cc(C(F)(F)F)c2)(c2ccccc2)CC1 (centres undefined) | 123 to 134 °C |
| CS(=O)(=O)c1ccc(-c2cnn(C3CCCC3)c(=O)c2-c2ccc(F)cc2)cc1 | 191 to 193 °C |
| O=C(OC1=CC(O)=CC(C=Cc2ccc(O)cc2)(C(=O)c2cc(O)c(O)c(O)c2)C1)c1cc(O)c(O)c(O)c1 (centres undefined) | 210 to 212 °C |

| Compound | melting point |
| --- | --- |
| COc1cc(O)c(C)c(C(=O)O)c1Br | 79 to 80 °C |
| COC(=O)c1sccc1N=NN(C)C | 74 to 76 °C |
| O=C(c1cccs1)c1cnn2c(-c3cccc(-c4nnn(Cc5ccccn5)n4)c3)ccnc12 | 184 °C |
| O=[N+]([O-])c1ccc(CCC2CCN(c3cc(Cl)nnc3Cl)CC2)cc1 | 162 to 164 °C |
| Cc1c(F)c(N2CCNCC2)cc2c1c(=O)c(C(=O)O)cn2C1CC1 | 226 to 228 °C |
| CC(CN(C(C)C)C(C)C)N1C(=O)/C(=N/NC(N)=O)c2ccccc21 (centres undefined) | 195 to 197 °C |
| Fc1ccc(-c2ccn(C3CCN(Cc4ccccc4)CC3)c2-c2ccncc2)cc1 | 132 to 139 °C |
| CC(=O)SCCC(=O)OC(=O)CO | 150 to 157 °C |
| COCCNc1ccc(CN2CCN(C(c3ccccc3)c3ccccc3)CC2)cc1[N+](=O)[O-] | 97.2 °C |
| CCOc1cc([C@@H](CCN(O)C=O)N2C(=O)c3cccc(NC(C)=O)c3C2=O)ccc1OC | 96 to 98 °C |
| O=C1CCSc2cc(Br)ccc21 | 55 to 57 °C |
| O=c1c2ccccc2ncn1C1CCN(CCC(CC(F)(F)F)c2ccccc2)CC1 (centres undefined) | 128 to 129 °C |
| Cc1cn(N)c2ccccc12 | 60 to 63 °C |
| CCCCN1C(=O)[C@@H]2[C@H](C1=O)[C@H](c1ccc(C#N)cc1)N(C(C)=O)[C@H]2C (racemic) | 140 to 141 °C |
| O=C1NCc2c1cc1ccc3c(c1c2-c1ccccc1)OCO3 | 290 to 292 °C |
| COC(=O)C(c1ccc(N)cc1)C1CC1 (centres undefined) | 68 to 69 °C |
| O=[N+]([O-])c1ccc(Oc2ccc(C(c3ccc(Oc4ccc([N+](=O)[O-])cc4)cc3)(C(F)(F)F)C(F)(F)F)cc2)cc1 | 150 to 152 °C |
| CN(C)CCCOc1ccc(C(=O)NN)nc1 | 82 to 83 °C |
| Cc1nnnn1CCCC(=O)O | 71 to 72.5 °C |
| O=C1N[C@H]2OC=N[C@@]12c1ccccc1 | 159 to 160 °C |
| CCC(Oc1ccccc1C#N)C(=O)OC1CC(O)C=C2C=CC(C)C(CCC3CC(O)CC(=O)O3)C21 (mixture of isomers) | 95 to 97 °C |
| Cc1c(C(F)(F)F)cnn(-c2ncc(Cl)cc2F)c1=O | 91 to 93 °C |
| CC(C)N1C(=O)c2cnc(-c3ccccc3)nc2N(C(=O)CN2CCN(C)CC2)c2ccccc21 | 168 to 170 °C |
| O=C(O)c1ccc(O)c(NC(=O)C(CS)Cc2ccccc2)c1 (centres undefined) | 226 to 227 °C |
